15 molecules from ChEMBL document CHEMBL2069236, “Synthesis and biological evaluation of novel N-acyl substituted quinolin-2(1H)-one derivatives as potential antimicrobial agents” (2012) can be followed below.

Common to all, as to format: functional
Experiment [1] deals with Staphylococcus aureus. Briefly: Antibacterial activity against Staphylococcus aureus ATCC 25923 by disc diffusion method.
The test system of experiment [2] is Staphylococcus aureus. The experiment can be described thus: Antibacterial activity against methicillin-resistant Staphylococcus aureus N 315 by disc diffusion method.
The subject of another experiment is Bacillus subtilis. Briefly: Antibacterial activity against Bacillus subtilis ATCC 6633 by disc diffusion method.
For the next experiment, the system named is Bacillus. The experiment can be described thus: Antibacterial activity against Bacillus proteus by disc diffusion method. (In general: Agar diffusion results depend on both activity and mobility in agar.)
A further experiment has as its system Escherichia coli. Briefly: Antibacterial activity against Escherichia coli JM 109 by disc diffusion method.
The next experiment relates to Candida albicans. Briefly: Antifungal activity against Candida albicans ATCC 76615 by disc diffusion method.
A further experiment deals with Candida. Briefly: Antifungal activity against Candida mycoderma by disc diffusion method.
Experiment [3] concerns Staphylococcus aureus. The experiment can be described thus: Ratio of streptomycin MIC to compound MIC for methicillin-resistant Staphylococcus aureus N 315.

The structures appear in SMILES notation. Converted amounts (≈) assume the structure as drawn.

Consider `CCCN(CCC)CC(=O)Nc1cccc2c1CCC(=O)N2.Cl`, for which the minimal inhibitory concentration (MIC) with Staphylococcus aureus [1] was found to be 8 µg/mL; against Staphylococcus aureus [2], 64 µg/mL; in the experiment on Bacillus subtilis, 64 µg/mL; in the experiment on Bacillus, 256 µg/mL; in the experiment on Escherichia coli, 64 µg/mL; against Candida albicans it was 256 µg/mL. Inhibition of growth with Candida (MIC) required 16 µg/mL.
In the case of `CCN(CC)CC(=O)Nc1cccc2c1CCC(=O)N2.Cl`, the MIC came to 128 µg/mL with Staphylococcus aureus [1]; 64 µg/mL against Staphylococcus aureus [2]; 32 µg/mL in the experiment on Bacillus subtilis; 256 µg/mL in the experiment on Bacillus; 8 µg/mL with Escherichia coli; 256 µg/mL against Candida albicans. This molecule also came in with a minimal inhibitory concentration (MIC) with Candida of 32 µg/mL.
Turning to `CC(C)(C)NCC(=O)Nc1cccc2c1CCC(=O)N2.Cl`, the minimal inhibitory concentration (MIC) came to 32 µg/mL in the experiment with Staphylococcus aureus [1]; 128 µg/mL against Staphylococcus aureus [2]; 256 µg/mL in the experiment on Bacillus subtilis; 256 µg/mL against Bacillus; 32 µg/mL in the experiment on Escherichia coli; 16 µg/mL in the experiment with Candida albicans. Further, in the experiment on Candida, the lowest concentration to inhibit growth (MIC) was 32 µg/mL.
On to `Cl.O=C1CCc2c(cccc2NC(=O)CN(Cc2ccccc2)Cc2ccccc2)N1`, for which the MIC in the experiment with Staphylococcus aureus [1] stood at 128 µg/mL; in the experiment on Staphylococcus aureus [2] it was 128 µg/mL; against Bacillus subtilis, 32 µg/mL; against Bacillus it was 32 µg/mL; in the experiment on Escherichia coli, 64 µg/mL; with Candida albicans it was 128 µg/mL. The molecule further yielded an MIC against Candida of 256 µg/mL.
Consider `Cl.O=C1CCc2c(cccc2NC(=O)CN(CCO)CCO)N1`, for which the MIC in the experiment with Staphylococcus aureus [1] was determined as 128 µg/mL; against Staphylococcus aureus [2], 64 µg/mL; in the experiment on Bacillus subtilis, 128 µg/mL; in the experiment on Bacillus it was 128 µg/mL; in the experiment on Escherichia coli, 128 µg/mL; against Candida albicans, 4 µg/mL. In the experiment with Candida, this molecule came in with an MIC of 128 µg/mL.
In the case of `Cl.O=C1CCc2c(cccc2NC(=O)CNCc2ccccc2)N1`, the minimum inhibitory concentration (MIC) in the experiment on Staphylococcus aureus [1] was determined as 32 µg/mL; against Staphylococcus aureus [2], 256 µg/mL; in the experiment with Bacillus subtilis it was 64 µg/mL; in the experiment with Bacillus, 64 µg/mL; with Escherichia coli, 64 µg/mL; against Candida albicans, 32 µg/mL. This molecule showed an MIC against Candida of 32 µg/mL.
Regarding `Cl.O=C1CCc2c(cccc2NC(=O)CN2CCCCC2)N1`, the MIC in the experiment on Staphylococcus aureus [1] worked out at 32 µg/mL; in the experiment on Staphylococcus aureus [2], 64 µg/mL; against Bacillus subtilis it was 16 µg/mL; in the experiment on Bacillus it was 128 µg/mL; in the experiment with Escherichia coli, 32 µg/mL; in the experiment with Candida albicans, 128 µg/mL. In the experiment on Candida, this molecule had an MIC of 256 µg/mL. The Ratio with Staphylococcus aureus [3] was found to be 8.
In the case of `Cl.O=C1CCc2c(cccc2NC(=O)Cn2ccnc2)N1`, the minimum inhibitory concentration (MIC) against Staphylococcus aureus [1] was 16 µg/mL; in the experiment on Staphylococcus aureus [2], 64 µg/mL; in the experiment with Bacillus subtilis, 32 µg/mL; in the experiment on Bacillus it was 64 µg/mL; against Escherichia coli, 64 µg/mL; in the experiment with Candida albicans it was 16 µg/mL. This molecule also registered a minimal inhibitory concentration (MIC) in the experiment on Candida of 16 µg/mL. The Ratio in the experiment with Staphylococcus aureus [3] was found to be 8.
Consider `Cl.O=C1CCc2c(cccc2NC(=O)CN2CCOCC2)N1`, for which the MIC against Staphylococcus aureus [1] came out at 128 µg/mL; in the experiment on Staphylococcus aureus [2], 32 µg/mL; in the experiment on Bacillus subtilis, 128 µg/mL; in the experiment on Bacillus, 128 µg/mL; in the experiment on Escherichia coli, 32 µg/mL; in the experiment with Candida albicans, 64 µg/mL. The molecule also yielded an MIC in the experiment with Candida of 32 µg/mL. Besides, the Ratio in the experiment with Staphylococcus aureus [3] is reported as 8.
On to `Cl.O=C1CCc2c(cccc2NC(=O)Cn2cnc3ccccc32)N1`, for which the minimum inhibitory concentration (MIC) in the experiment on Staphylococcus aureus [1] came to 16 µg/mL; in the experiment with Staphylococcus aureus [2], 32 µg/mL; in the experiment on Bacillus subtilis, 128 µg/mL; with Bacillus, 256 µg/mL; against Escherichia coli it was 32 µg/mL; with Candida albicans, 256 µg/mL. This molecule displayed an MIC in the experiment on Candida of 32 µg/mL. In addition, the Ratio in the experiment on Staphylococcus aureus [3] came out at 8.
As to `Cl.O=C1CCc2c(cccc2NC(=O)CN2CCNCC2)N1`, the minimum inhibitory concentration (MIC) stood at 64 µg/mL against Staphylococcus aureus [1]; 32 µg/mL against Staphylococcus aureus [2]; 64 µg/mL against Bacillus subtilis; 16 µg/mL in the experiment on Bacillus; 128 µg/mL against Escherichia coli; 32 µg/mL against Candida albicans. For the same molecule, the MIC against Candida worked out at 4 µg/mL. For the same molecule, the Ratio with Staphylococcus aureus [3] is 8.
Turning to `Cl.O=C1CCc2c(cccc2NC(=O)CN2CCCC2)N1`, the MIC in the experiment with Staphylococcus aureus [1] was 32 µg/mL; in the experiment on Staphylococcus aureus [2] it was 32 µg/mL; in the experiment on Bacillus subtilis, 32 µg/mL; against Bacillus, 128 µg/mL; in the experiment with Escherichia coli, 32 µg/mL; against Candida albicans, 32 µg/mL. The molecule further had an MIC in the experiment with Candida of 128 µg/mL. Moreover, the Ratio with Staphylococcus aureus [3] turned out to be 8.
Consider `CC(C)(C)OC(=O)N1CCN(CC(=O)Nc2cccc3c2CCC(=O)N3)CC1.Cl`, for which the minimum inhibitory concentration (MIC) stood at 64 µg/mL against Staphylococcus aureus [1]; 32 µg/mL against Staphylococcus aureus [2]; 32 µg/mL with Bacillus subtilis; 128 µg/mL in the experiment with Bacillus; 16 µg/mL in the experiment with Escherichia coli; 128 µg/mL in the experiment on Candida albicans. The molecule also had a minimal inhibitory concentration (MIC) against Candida of 32 µg/mL. Besides, the Ratio in the experiment with Staphylococcus aureus [3] stood at 8.
On to `OC(Cn1cncn1)(Cn1cncn1)c1ccc(F)cc1F` [FLUCONAZOLE], for which the MIC in the experiment on Candida albicans was 4 µg/mL (≈ 13.1 µM); against Candida, 8 µg/mL (≈ 26.1 µM).
In the case of `CN[C@@H]1[C@H](O[C@H]2[C@H](O[C@H]3[C@H](O)[C@@H](O)[C@H](N=C(N)N)[C@@H](O)[C@@H]3N=C(N)N)O[C@@H](C)[C@]2(O)C=O)O[C@@H](CO)[C@H](O)[C@H]1O` [STREPTOMYCIN], the minimum inhibitory concentration (MIC) came out at 32 µg/mL (≈ 55 µM) with Staphylococcus aureus [1]; 512 µg/mL (≈ 880 µM) in the experiment on Staphylococcus aureus [2]; 32 µg/mL (≈ 55 µM) in the experiment on Bacillus subtilis; 64 µg/mL (≈ 110 µM) in the experiment on Bacillus; 16 µg/mL (≈ 27.5 µM) against Escherichia coli.

The MIC is the least concentration at which growth counts as inhibited. A high value points to weaker potency.
